One experiment relates to female NOD mice. Description: IDDM incidence in NOD mice treated at six weeks (Example 6). The format is in vivo. Conditions: 100 μg ip in IFA at six weeks, boosted once 10 days later; FIGS. 6 and 7. On the procedure:
IDDM incidence. At specified times, groups of 10 female NOD mice were injected i.p. with 50 μg antigen or control β-galactosidase in 100 μl of 50% IFA. Another control group received 100 μl of 50% IFA alone. Because there may be a requirement for continual antigen presentation, the mice were reinjected every 6 weeks until 40 weeks of age. Urine glucose levels were monitored weekly for diabetes by Tes-tape (Lilly, Indianapolis, Ind.). After we observed abnormal glucose in the urine, blood glucose levels were monitored twice weekly. A recording of two consecutive blood glucose levels of greater than 13 mmol/l was considered as IDDM onset.
Groups of six weeks old female NOD mice were treated with either the control MSA (MSA 560-574) peptide, or a peptide containing a βCAA target determinant (GADp35, GADp34, HSP 277 or insulin B-chain), or a NTTA peptide #2, 4, 6 or 7 (in each case 100 μg ip in IFA)). The mice were boosted once 10 days later. All mouse groups were injected concurrently and housed in the same SPF room. […] An average of 70% of the mice treated with a βCAA target determinant developed IDDM by 40 weeks in age. Two consecutive blood glucose levels of […] was considered disease onset. N=10 for each group.
An average of 40% of the NOD mice treated with different NTTAs developed IDDM by 40 weeks in age. […]

Experiment [1] has as its system diabetic NOD mice with transplanted syngeneic islets. Description: Transplantation of syngeneic islets into diabetic NOD mice (Example 2). The format is in vivo. To be noted: antigen i.p. in IFA to recipient diabetic NOD mice prior to transplantation; FIG. 1. The method, then: Transplantation of islets. Female NOD mice were monitored for the onset of IDDM, after which the mice were maintained on 1.0 to 1.5 units insulin (Humulin U, Lilly) per day. At the time of IDDM onset, mice were injected with either 100 μg of GAD65, hsp277, insulin B-chain or control β-galactosidase i.p. in 50% IFA. Ten days later, the mice were reinjected. Ten days after the second treatment, 3000 freshly isolated islets from newborn NOD mice were transplanted into the space beneath the kidney capsule, and Humulin administration was discontinued. The mice were reinjected every two weeks. Recurrence of diabetes is defined as two consecutive blood glucose levels of greater than 13 mmol/l.
Based on the ability of autoantigen treatment to inhibit disease in pre-diabetic NOD mice with (1) we tested whether this treatment could also protect transplanted syngeneic β cells from the established autoimmune responses in diabetic NOD mice. Islets were transplanted into diabetic NOD mice that had been treated with β-galactosidase. […] The results are shown in FIG. 1, wherein data are presented as time post-transplantation at which hyperglycemia recurred. These findings correlate with the extent to which each autoantigen was able to promote Th2 immunity in newly hyperglycemic animals (see Example 3, below).

For experiment [2], the system named is antigen-specific T cells within islet infiltrates. Description: ELISPOT of single antigen-specific T cells from pancreatic islet infiltrates (Example 11). The format is cell-based, NOD mice. The method, then: (§1) ELISPOT analysis. At a specified time, mice received a single i.p. injection of 100 μg β-galactosidase or GAD65 or other specified antigen in 50% IFA. Fourteen days later, splenic T-cells were isolated and the frequency of β-galactosidase and GAD65-specific T-cells secreting IL-4, IL-5 and IFN-γ was determined by using the ELISPOT technique as described (Forsthuber, T., et al., Science, 271:1728, 1996), with the exception that the treating antigen and β-galactosidase (100 μg/ml) were used as antigens, and 11B11 together with biotinylated BVD6-24G2 (PharMingen, San Diego, Calif.) was used for capture and detection of IL-4. The resulting spots were counted manually.
Monocytes were isolated from islets of 10-week old female NOD mice. 1000, 100 or 10 monocytes were mixed with 1 million irradiated splenic T cells and tested for IFNγ and IL-5 responses to B cell autoantigens, as well as control antigens, by ELISPOT.

The subject of another experiment is NOD mice. Conditions: intraperitoneally in incomplete Freund's adjuvant early in the NOD mouse disease process (ref 1); cited from earlier work.
Experiment [3] relates to splenic T cells of treated NOD mice. Description: ELISPOT of Th1/Th2 responses after neonatal autoantigen treatment (Example 8). The format is cell-based. To be noted: treated neonatally 100 μg i.p. in IFA, tested at 4 weeks in age; FIG. 10. The method, then: as §1
The data are represented as the mean number of spot forming colonies per million splenic T cells above background. The variation within, each group was <15%. Experimental and control mice were tested simultaneously (in triplicate) in two separate experiments (n=5/group).

On to Insulin B-chain [reference compound], for which the “protection from disease / disease incidence” value with female NOD mice is on record as “non-significant trend toward protection”. For the same substance, the “syngeneic islet graft survival (recurrence of hyperglycemia)” value in experiment [1] was “lacked any protective effect”. Besides, the “IFNγ responses, number of T cells” value in experiment [2] (100 islet monocytes mixed with 1 million irradiated splenic T cells) was 6; in experiment [2] (1,000 islet monocytes mixed with 1 million irradiated splenic T cells, 10-week old female NOD mice), 50. Further, the “protection from IDDM” value with NOD mice is listed as “highly protective”. Moreover, the “Th2 and Th1 responses to the injected autoantigen” value in experiment [3] was “both Th2 and Th1 responses”.

These data come from patent US20050202032A1, “Use of neglected target tissue antigens in modulation of immune responses” (The Regents of the University of California, priority 1998, published 2005).
